{
  "source": "patent US20070117826A1",
  "about": "“Pharmaceutical formulations comprising ibuprofen, oxycodone, and 14-hydroxycodeinone” (Forest Laboratories, Inc., priority 2005, published 2007)",
  "key": {"[1]": {"system": "Crl:CD-1(ICR) BR mice", "assay": "Dose range finding study (mortality)", "type": "in vivo, mouse", "settings": "oral gavage", "description": "Since no appropriate toxicity data were available (e.g., the same species, strain, route, etc.), a dose range finding study was performed using the same treatment regimen used in the micronucleus assay. Young adult male and female mice of the Crl:CD-1®(ICR) BR strain from Charles River Laboratories, Raleigh, N.C., were used in this study. Dose levels of 0, 125, 250, and 500 mg/kg were tested."}, "[2]": {"system": "polychromatic erythrocyte cells in Crl:CD-1(ICR) BR mouse bone marrow", "assay": "In vivo mouse micronucleus assay", "settings": "for statistically significant increase in micronucleated PCEs: 31.25, 62.5 and 125 mg/kg; for signs of clinical toxicity in treated animals: mice dosed up to and including 125 mg/kg", "description": "The objective of this study was to evaluate 14-hydroxycodeinone for in vivo clastogenic activity and/or disruption of the mitotic apparatus by detecting micronuclei in polychromatic erythrocyte cells in Crl:CD-1®(ICR) BR mouse bone marrow. The assay design was based on Organization for Economic Co-operation and Development (OECD) guideline 474, updated and adopted Jul. 21, 1997. The study was conducted in compliance with the Good Laboratory Practice regulations as set forth by the FDA.\nThe micronucleus test can serve as a rapid screen for clastogenic agents and test articles which interfere with normal mitotic cell division (Schmid, W., The micronucleus test. Mutat. Res. 31, 9-15, 1975; Heddle et al., The introduction of micronuclei as a measure of genotoxicity. Mutat. Res. 123, 61-118, 1983). Micronuclei are small chromatin bodies, consisting of entire chromosomes and/or acentric chromosome fragments, which lag behind at mitotic anaphase. At telophase, these multiple micronuclei are in the cytoplasm. During maturation of hematopoietic cells from erythoblasts to erythocytes, the nucleus is extruded. Micronuclei, if present, persist in the cytoplasm of these non-nucleated cells. Detection of micronuclei in non-nucleated cells eliminates the need to search for metaphase spreads in treated cell populations. Test articles affecting spindle-fiber function or formation can be detected through micronucleus induction. In this study, enucleated immature red blood cells or polychromatic erythrocytes (PCEs) were analyzed for the presence of micronuclei.\nThe micronucleus assay used 48 animals approximately 8 weeks old at the […], with a weight range of 28.4 to 35.3 g.\nAt least 2000 erythrocytes (PCEs) per animal were analyzed for the presence of […] was assessed by scoring the number of PCEs and ic erythrocytes (NCEs) in at least the first 500 erythrocytes for each […] of the micronuleus assay results is presented in the following table."}},
  "note": "“And” between values parts separate entries of the source, which are not always exact repeats. Equal values may be shown once. “Also recorded” adds a separate entry of the source.",
  "data": [
    {"smiles": "COc1ccc2c3c1OC1C(=O)C=C[C@@]4(O)[C@@H](C2)N(C)CC[C@]314", "note": "(some centres unmarked) [14-hydroxycodeinone]", "values": [
      {"measurement": "Number of Mice (died/total)", "setting": "[1]; 125 mg/kg", "value": "0/6"},
      {"measurement": "Number of Mice (died/total)", "setting": "[1]; 250 mg/kg", "value": "3 of 6 and 3/6"},
      {"measurement": "Number of Mice (died/total)", "setting": "[1]; 500 mg/kg", "value": "14 of 18 and 14/18"},
      {"measurement": "PCE:NCE mean ratio", "setting": "[2]; 31.25 mg/kg oral gavage, harvest 24 Hours", "value": 0.74},
      {"measurement": "PCE:NCE mean ratio", "setting": "[2]; 62.5 mg/kg oral gavage, harvest 24 Hours", "value": 0.64},
      {"measurement": "PCE:NCE mean ratio", "setting": "[2]; 125 mg/kg oral gavage, harvest 24 Hours", "value": 0.66},
      {"measurement": "PCE:NCE mean ratio", "setting": "[2]; 125 mg/kg oral gavage, harvest 48 Hours", "value": 0.36},
      {"measurement": "bone marrow toxicity (PCE:NCE ratio versus control 0.60)", "setting": "[2]; 125 mg/kg, 48-hour group, difference not statistically significant at p≦0.05", "value": "suggesting induced bone marrow toxicity"},
      {"measurement": "statistically significant increase in micronucleated PCEs", "setting": "[2]", "value": "no signs of clinical toxicity or a statistically significant increase in micronucleated PCEs"},
      {"measurement": "statistically significant increase in micronucleated PCEs", "setting": "[2]; listed as 14-Hydroxycodeinone", "value": "did not induce statistically significant increases"},
      {"measurement": "outcome of the mouse bone marrow micronucleus assay (mutagenic properties)", "setting": "[2]; doses up to 125 mg/kg in mice", "value": "does not exhibit mutagenic properties; also recorded: negative"},
      {"measurement": "signs of clinical toxicity in treated animals", "setting": "[2]", "value": "no signs of clinical toxicity"},
      {"measurement": "signs of clinical toxicity in treated animals", "setting": "[2]; listed as 14-hyrdroxycodeinone", "value": "did not induce signs of clinical"},
      {"measurement": "cytotoxicity to the bone marrow (PCE:NCE ratios versus control)", "setting": "[2]; treated groups overall", "value": "lack of cytotoxicity to the bone marrow"}
    ]}
  ]
}
